Like-named read-outs stand apart in the source and are kept apart here.
What was measured:
Assay type in all cases: biochemical
PTP1B = target: T1, PTP1B (Homo sapiens, UniProt P18031); test: PTP1B Inhibition Assay: IC50 Determinations
T1 sequence (P18031 1-435): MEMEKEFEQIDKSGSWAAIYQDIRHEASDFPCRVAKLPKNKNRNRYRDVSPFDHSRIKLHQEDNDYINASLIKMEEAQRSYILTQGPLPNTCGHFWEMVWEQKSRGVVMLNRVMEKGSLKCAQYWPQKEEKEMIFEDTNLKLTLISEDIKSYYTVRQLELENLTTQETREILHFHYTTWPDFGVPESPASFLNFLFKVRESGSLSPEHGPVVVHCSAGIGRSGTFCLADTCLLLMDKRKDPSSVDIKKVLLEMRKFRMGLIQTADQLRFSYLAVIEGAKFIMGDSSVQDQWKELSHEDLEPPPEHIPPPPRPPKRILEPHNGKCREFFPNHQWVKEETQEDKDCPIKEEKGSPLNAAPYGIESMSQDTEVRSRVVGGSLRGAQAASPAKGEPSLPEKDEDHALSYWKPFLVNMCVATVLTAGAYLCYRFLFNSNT

PTEN [1] = target: T2, PTEN (Homo sapiens, UniProt P60484); test: PTEN Inhibition Assay: IC50 Determinations
T2 sequence (P60484 whole entry, species assumed): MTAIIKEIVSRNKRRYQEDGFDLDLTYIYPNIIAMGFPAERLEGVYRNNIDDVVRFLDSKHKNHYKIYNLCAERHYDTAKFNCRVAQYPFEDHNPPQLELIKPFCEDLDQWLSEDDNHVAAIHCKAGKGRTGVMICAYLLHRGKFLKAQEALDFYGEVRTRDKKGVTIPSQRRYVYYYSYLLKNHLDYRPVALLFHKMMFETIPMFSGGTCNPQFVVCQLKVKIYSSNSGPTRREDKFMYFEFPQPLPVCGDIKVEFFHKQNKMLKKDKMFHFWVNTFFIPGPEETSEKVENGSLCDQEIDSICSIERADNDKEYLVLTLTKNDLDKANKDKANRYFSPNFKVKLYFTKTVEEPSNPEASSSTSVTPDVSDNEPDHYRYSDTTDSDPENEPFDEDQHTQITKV

PTEN [2] = target: T2, PTEN; test: PTEN Inhibition Assay: General Screening
[3] = read-out: % Inhibition @ 250 uM
[4] = 250 uM, Table 27 isatins, read-out: % Inhibition @250 uM

| IC50 (PTP1B; Table 29, read-out: PTP1B IC50) [µM] | IC50 (PTEN [1]; Table 29, read-out: PTEN IC50) [µM] | inhibition at 250 µM (PTEN [2]; [4]) [%] | SMILES | IC50 (PTP1B) [µM] | IC50 (PTEN [1]) [µM] | inhibition at 250 µM (PTEN [2]; [3]) [%] |
| --- | --- | --- | --- | --- | --- | --- |
|  |  |  | O=C1C(=O)c2cc(NCc3ccccc3)ccc2-c2ccccc21 [SF1800-000] | < 10 | 0.862 | 98 |
|  |  |  | Cc1cc(C)cc(S(=O)(=O)Nc2ccc3c(c2)C(=O)C(=O)c2ccccc2-3)c1 [SF1801-000] | < 10 | 1.01 | 95.3 |
|  |  |  | O=C(O)CCC(=O)Nc1ccc2c(c1)C(=O)C(=O)c1ccccc1-2 [SF1804-000] | 1 to 10 | 54.7 | 98.6 |
|  |  |  | O=C(O)C(=O)Nc1ccc2c(c1)C(=O)C(=O)c1ccccc1-2 [SF1806-000] | 1 to 10 | 12.1 | 98.1 |
| 10 to 100 | 80.7 | 95 | O=C1Nc2ccc(Cl)cc2C1=O [SF1816-000] |  |  |  |
| < 10 | 31.7 | 97.8 | O=C1Nc2ccc(Br)cc2C1O (stereo not drawn) [SF1818-000] |  |  |  |
| < 10 | 33.6 | 96 | O=C1Nc2ccc(I)cc2C1=O [SF1819-000] |  |  |  |
| 10 to 100 | 61.9 | 94.6 | O=C1Nc2ccc(F)cc2C1=O [SF1820-000] |  |  |  |

| SMILES | IC50 (PTP1B; Table 29, read-out: PTP1B IC50) [µM] | IC50 (PTEN [1]; Table 29, read-out: PTEN IC50) [µM] | inhibition at 250 µM (PTEN [2]; [4]) [%] | IC50 (PTP1B) [µM] | IC50 (PTEN [1]) [µM] | inhibition at 250 µM (PTEN [2]; [3]) [%] |
| --- | --- | --- | --- | --- | --- | --- |
| CC(C)(C)c1ccc(C(=O)Nc2ccc3c(c2)C(=O)C(=O)c2ccccc2-3)cc1 [SF1803-000] | < 1 | 14.6 |  |  |  | 83 |
| O=C1Nc2ccc(Br)cc2C1=O [SF1814-000] |  |  | 97.6 | 10 to 100 | 44.9 |  |
